In PubChem BioAssay (NCI):
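Method: 48-hour compound exposure of cells in 96-well plates, five concentrations, linear interpolation of endpoints. GI50 is the concentration that inhibits growth by half. The concentration for full growth arrest is given as TGI.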

Experiments:
Test in all cases: growth of human tumour cells (NCI), 48 h
HT29 colon = tested on: HT29 colon
A549 NSCLC = tested on: A549 NSCLC
CCRF-CEM leukemia = tested on: CCRF-CEM leukemia
MDA-N = tested on: MDA-N
MDA-MB-435 = tested on: MDA-MB-435
SF-268 CNS = tested on: SF-268 CNS
SNB-19 CNS = tested on: SNB-19 CNS
SF-539 CNS = tested on: SF-539 CNS
NCI-H23 lung = tested on: NCI-H23 lung
BT-549 breast = tested on: BT-549 breast
TK-10 renal = tested on: TK-10 renal

SMILES	TGI (HT29 colon) [µM]	TGI (A549 NSCLC) [µM]	TGI (CCRF-CEM leukemia) [µM]	TGI (MDA-N) [µM]	TGI (MDA-MB-435) [µM]	TGI (SF-268 CNS) [µM]	TGI (SNB-19 CNS) [µM]	TGI (SF-539 CNS) [µM]	TGI (NCI-H23 lung) [µM]	TGI (BT-549 breast) [µM]	TGI (TK-10 renal) [µM]	GI50 (HT29 colon) [µM]	GI50 (A549 NSCLC) [µM]	GI50 (CCRF-CEM leukemia) [µM]	GI50 (MDA-MB-435) [µM]	GI50 (SF-268 CNS) [µM]	GI50 (SNB-19 CNS) [µM]	GI50 (SF-539 CNS) [µM]	GI50 (NCI-H23 lung) [µM]
O=S(=O)(c1ccc(-c2nnc(-c3ccc(F)cc3)o2)cc1)c1ccc(-c2nnc(-c3ccc(F)cc3)o2)cc1	> 100	> 100	> 100	> 100	> 100	> 100	> 100	> 100	> 100	> 100									
COc1ccc(C(Cc2ccccc2)C2NC(=S)NC2=O)cc1 (configuration not stated)	> 25	> 25	> 25		> 25	> 25	> 25	> 25	> 25		> 25								
O=NN(CCF)C(=O)NC1CC2CCC1C2 (configuration not stated)	> 100	> 100	> 100			> 100	> 100	> 100	> 100										
O=C1CC(C(CC(=O)c2ccccc2)c2ccccc2)C(=O)c2ccccc2N1 (configuration not stated)	> 100	> 100	> 100	> 100	> 100	> 100	> 100	> 100	> 100	> 100									
Nc1cccc(S(=O)(=O)Nc2nnc(S(N)(=O)=O)s2)c1	> 100	> 100			> 100	> 100	> 100	> 100	> 100	> 100	> 100								
CN(C)CCNC(=O)c1cccc2cc3cc(O)ccc3nc12	4.95	3.47	5.44			5.66	3.53	4.23	3.24										
OCC(CCc1ccccc1I)C1=CCC2(CC1)OCCO2 (configuration not stated)	41.6	62.4	35.7	36.5	30.7	50	37.7	32.5	48.9		50.7								
CCOC(=O)C(C)Sc1nnc(COc2ccccc2OC)n1-c1ccccc1 (configuration not stated)	> 100	> 100	> 100			> 100	> 100	> 100	> 100		> 100								
CC12CCCCC1=[N+]([O-])C(C)(C)N2O (configuration not stated)	> 100	> 100	> 100	> 100	> 100	> 100	> 100	> 100	> 100		> 100								
O=C1Nc2cc([N+](=O)[O-])c(Br)cc2C1=O	41.9	> 100	32.1			44.1		41	31.9		> 100								
NC(Cc1c[nH]c2cc([N+](=O)[O-])ccc12)C(=O)O (configuration not stated)	> 100	> 100		> 100	> 100	> 100	> 100	> 100	> 100	> 100	> 100								
CCCc1c(C(=O)OCC)[nH]c(-c2ccc(-c3[nH]c(C(=O)OCC)c(CCC)c3C(=O)OCC)s2)c1C(=O)OCC	> 100	> 100	> 100			> 100	> 100	> 100	> 100		> 100								
O=C1C=C2CCC[C@H]3OC(=O)C[C@@]23CC1	> 100	> 100		> 100	> 100	> 100	> 100	> 100	> 100		> 100								
CC(=O)OC1C2CCC3C(C)(O)C4CC(O)C(C)(C)C4(O)C(O)CC13CC2(C)O (configuration not stated)	> 100	> 100	> 100	> 100		> 100	> 100	> 100	> 100	> 100	> 100								
[O-][n+]1c(CN2CCCCC2)nc2cccc3c2c1-c1ccccc1-3	51.8	33.1		58.4	68		89.4	88.4	48.5	> 100	67.5								
CC(C)(C)CC(C)(C)NC(=S)NO	> 100	> 100	> 100	> 100	> 100	> 100	> 100	> 100	> 100		> 100								
N#C/C(=C\c1ccc([N+](=O)[O-])s1)c1nc2cc(Cl)ccc2s1	> 100	> 100	> 100		3.19	> 100	> 100	2.79	3.91			3.29	3.12	0.469	1.65	2.51	1.58	1.21	0.773
Cc1ccc(-n2cc(-c3ccc(Cl)cc3)c3c(NN)ncnc32)cc1	19	15.3	2.52	63.2	29.4	17.8	40.9	11.3	12.5		> 100								
Cc1cn(C2CC(CCCO)C(CO)O2)c(=O)[nH]c1=O (configuration not stated)	> 100	> 100	> 100			> 100	> 100		> 100		> 100			> 100					
CC1(C)C2CCC3(OCCO3)C1C(O)C2 (configuration not stated)	> 100	> 100	> 100			> 100	> 100	> 100	> 100		> 100								
Cc1ccc(S(=O)(=O)NC(=O)NC(CCCCN=C(N)N)C(=O)O)cc1 (configuration not stated)		> 100	> 100	> 100		> 100	> 100	> 100	> 100	> 100	> 100								
CCSCN(C)c1nc(N(C)C)nc(N(C)C)n1	> 100	> 100	> 100			> 100	> 100	> 100	> 100		> 100								
